Laboratory results: the C3SDB collision cross section collection
Counter-ions that a name gives are not always drawn.

Conditions: [M+H-H2O]+; instrument: TW; calibrated with polyalanine and drug standards

Compound | collision cross section (N2)
COc1cc([C@@H]2c3cc4c(cc3[C@H](O)[C@H]3COC(=O)[C@@H]23)OCO4)cc(OC)c1OC [PICROPODOPHYLLIN] | 190.9 Å²
COc1cc([C@@H]2c3cc4c(cc3[C@H](O)[C@H]3COC(=O)[C@H]23)OCO4)cc(OC)c1OC [PODOFILOX] | 190.1 Å²
CCC(C)(C)C(=O)O[C@H]1C[C@@H](C)C=C2C=C[C@H](C)[C@H](CC[C@@H]3C[C@@H](O)CC(=O)O3)[C@H]21 [SIMVASTATIN] | 199.6 Å²
CC1=CC(=O)[C@H]2C(C)(C)CCC[C@]2(C)[C@@]1(O)CCc1ccoc1 [SOLIDAGENONE] | 170.6 Å²

Same assay, conditions: [M+H]+; instrument: TW; calibrated with polyalanine and drug standards

Compound | collision cross section (N2)
O=c1[nH]c2ccccc2n1C1CCN(CCCC(c2ccc(F)cc2)c2ccc(F)cc2)CC1 [PIMOZIDE] | 212.6 Å²
CCn1cc(C(=O)O)c(=O)c2cnc(N3CCNCC3)nc21 [PIPEMIDIC ACID] | 171 Å²
CC1=CC(=O)c2c(O)cccc2C1=O [PLUMBAGIN] | 124.1 Å²
COc1cc([C@@H]2c3cc4c(cc3[C@H](O)[C@H]3COC(=O)[C@H]23)OCO4)cc(OC)c1OC [PODOFILOX] | 189.6 Å²
COC(=O)[C@]1(C)CC[C@]2(C)CC[C@]3(C)C4=CC=C5C(=CC(=O)C(O)=C5C)[C@]4(C)CC[C@@]3(C)[C@@H]2C1 [PRISTIMERIN] | 211.2 Å²
CCCN(CCC)S(=O)(=O)c1ccc(C(=O)O)cc1 [PROBENECID] | 161.4 Å²
CCN(CC)CCOC(=O)c1ccc(N)cc1 [PROCAINE] | 154.7 Å²
CNCCCC1c2ccccc2C=Cc2ccccc21 [PROTRYPTYLINE HYDROCHLORIDE] | 162.8 Å²
CC(O)Cn1cnc2c1c(=O)n(C)c(=O)n2C (stereo unspecified) [PROXYPHYLLINE] | 149.1 Å²
OCCOCCN1CCN(C2=Nc3ccccc3Sc3ccccc32)CC1 [QUETIAPINE] | 191.5 Å²
CC[C@H]1OC(=O)[C@H](C)[C@@H](O[C@H]2C[C@@](C)(OC)[C@@H](O)[C@H](C)O2)[C@H](C)[C@@H](O[C@@H]2O[C@H](C)C[C@H](N(C)C)[C@H]2O)[C@](C)(O)C[C@@H](C)/C(=N\OCOCCOC)[C@H](C)[C@@H](O)[C@]1(C)O [ROXITHROMYCIN] | 276.1 Å²
COc1ccc2c(c1O)-c1c(OC)c(OC)cc3c1[C@H](C2)N(C)CC3 [S-ISOCORYDINE (+)] | 181.9 Å²
C=CCc1ccc2c(c1)OCO2 [SAFROLE] | 138.6 Å²
CC1=C2[C@H]3OC(=O)[C@@H](C)[C@@H]3CC[C@@]2(C)C=CC1=O [SANTONIN] | 154.9 Å²
CC(=O)O[C@H]1CC[C@@]2(C)[C@H](CC[C@@H]3[C@@H]2CC[C@]2(C)[C@@H]4[C@H](C[C@@H]32)O[C@]2(CC[C@@H](C)CO2)[C@H]4C)C1 [SMILAGENIN ACETATE] | 222.1 Å²
COc1cc2ccc(=O)oc2c2ccoc12 [SPHONDIN] | 139.9 Å²
O=C(CCCN1CCC2(CC1)C(=O)NCN2c1ccccc1)c1ccc(F)cc1 [SPIPERONE] | 193.8 Å²
CC[C@H](/C=C/[C@@H](C)[C@H]1CC[C@H]2[C@@H]3CCC4=CC(=O)CC[C@]4(C)[C@H]3CC[C@]12C)C(C)C [STIGMASTA-4,22-DIEN-3-ONE] | 218.5 Å²

Compound | collision cross section (N2)
Nc1ccc(S(=O)(=O)NC(=O)c2ccccc2)cc1 [SULFABENZAMIDE] | 158.2 Å²
Nc1ccc(S(=O)(=O)Nc2ccc(Cl)nn2)cc1 [SULFACHLORPYRIDAZINE] | 158.2 Å²
COc1cc(NS(=O)(=O)c2ccc(N)cc2)nc(OC)n1 [SULFADIMETHOXINE] | 167.7 Å²
Cc1ccnc(NS(=O)(=O)c2ccc(N)cc2)n1 [SULFAMERAZINE] | 156.3 Å²
Cc1nnc(NS(=O)(=O)c2ccc(N)cc2)s1 [SULFAMETHIZOLE] | 155.2 Å²
Cc1cc(NS(=O)(=O)c2ccc(N)cc2)no1 [SULFAMETHOXAZOLE] | 151.4 Å²
COc1ccc(NS(=O)(=O)c2ccc(N)cc2)nn1 [SULFAMETHOXYPYRIDAZINE] | 159.4 Å²
COc1cc(NS(=O)(=O)c2ccc(N)cc2)ncn1 [SULFAMONOMETHOXINE] | 159.5 Å²
Nc1ccc(S(=O)(=O)Nc2ccccn2)cc1 [SULFAPYRIDINE] | 151.6 Å²
CC(=O)N(c1onc(C)c1C)S(=O)(=O)c1ccc(N)cc1 [SULFISOXAZOLE ACETYL] | 161.2 Å²
COc1cc(S(C)=O)ccc1-c1nc2ncccc2[nH]1 (stereo unspecified) [SULMAZOLE] | 166.4 Å²
O=C(O)C(O)C(O)C(=O)O (stereo unspecified) [TARTARIC ACID] | 124.4 Å²
CCC(=O)O[C@H]1CC[C@H]2[C@@H]3CCC4=CC(=O)CC[C@]4(C)[C@H]3CC[C@]12C [TESTOSTERONE PROPIONATE] | 188.2 Å²
Nc1nc(=S)c2[nH]cnc2[nH]1 [THIOGUANINE] | 129.7 Å²
Nc1nc(=S)c2ncn([C@@H]3O[C@H](CO)[C@@H](O)[C@H]3O)c2[nH]1 [THIOGUANOSINE] | 164 Å²
O=c1oc2cc(O)ccc2s1 [TIOXOLONE] | 130.2 Å²
CSc1nc2cc(Oc3cccc(Cl)c3Cl)c(Cl)cc2[nH]1 [TRICLABENDAZOLE] | 179.3 Å²
COc1cc2c(c(OC)c1OC)-c1ccc(O)c(=O)cc1[C@@H](N)CC2 [TRIMETHYLCOLCHICINIC ACID] | 181 Å²

Further lines, results first:

collision cross section (N2) | Compound
154.2 Å² | CC(C)=CCc1c(O)cc2oc(C)cc(=O)c2c1O [PEUCENIN]
129 Å² | CC(=O)c1c(O)cc(O)cc1O [PHLORACETOPHENONE]
196.8 Å² | Cc1nc2ccccn2c(=O)c1CCN1CCC(C(=O)c2ccc(F)cc2)CC1 [PIRENPERONE]
176.5 Å² | O=C(C1CCCCC1)N1CC(=O)N2CCc3ccccc3C2C1 (stereo unspecified) [PRAZIQUANTEL]
210.3 Å² | C[C@]12C=CC(=O)C=C1CC[C@@H]1[C@@H]2[C@@H](O)C[C@@]2(C)[C@H]1CC[C@]2(O)C(=O)COC(=O)CCC(=O)O [PREDNISOLONE HEMISUCCINATE]
196.4 Å² | O=c1c(-c2ccc(O)cc2)coc2c([C@@H]3O[C@H](CO)[C@@H](O)[C@H](O)[C@H]3O)c(O)ccc12 [PUERARIN]
212.8 Å² | COC(=O)[C@H](Cc1ccccc1)NC(=O)/C(=C1\OC(=O)C(c2ccccc2)=C1O)c1ccccc1 [RHIZOCARPIC ACID]
280.3 Å² | CO[C@H]1/C=C/O[C@@]2(C)Oc3c(C)c(O)c4c(c3C2=O)C(=O)/C(=C/NN2CCN(C)CC2)C(=C4O)NC(=O)/C(C)=C\C=C\[C@H](C)[C@H](O)[C@@H](C)[C@@H](O)[C@@H](C)[C@H](OC(C)=O)[C@@H]1C [RIFAMPIN]
190.3 Å² | COc1ccc(-c2c(O)c3c(OC)c4c(cc3oc2=O)OC(C)(C)C=C4)cc1 [ROBUSTIC ACID]
230.7 Å² | C[C@@H]1O[C@@H](OC[C@H]2OC(Oc3c(-c4ccc(O)c(O)c4)oc4cc(O)cc(O)c4c3=O)[C@H](O)[C@@H](O)[C@@H]2O)[C@H](O)[C@H](O)[C@H]1O (stereo partly specified) [RUTOSIDE  (rutin)]
143.9 Å² | O=C(Nc1ccccc1)c1ccccc1O [SALICYLANILIDE]
170.3 Å² | COc1ccc2c(c1)OC/C(=C\c1ccc(OC)c(O)c1)C2=O [SAPPANONE A DIMETHYL ETHER]
133.6 Å² | COc1cc2ccc(=O)oc2cc1O [SCOPOLETIN]
200.4 Å² | O=C(O)C1=C/C(=N/Nc2ccc(S(=O)(=O)Nc3ccccn3)cc2)C=CC1=O [SULFASALAZINE]
191.6 Å² | CC1=C(CC(=O)O)c2cc(F)ccc2/C1=C\c1ccc(S(C)=O)cc1 (stereo unspecified) [SULINDAC]
157.2 Å² | CC(C(=O)O)c1ccc(C(=O)c2cccs2)cc1 (stereo unspecified) [SUPROFEN]
199.3 Å² | CCCCC1(COC(=O)CCC(=O)O)C(=O)N(c2ccccc2)N(c2ccccc2)C1=O [SUXIBUZONE]
164 Å² | Cc1coc2c1C(=O)C(=O)c1c-2ccc2c1CCCC2(C)C [TANSHINONE IIA]
269.7 Å² | CC[C@H]1OC(=O)[C@H](C)C(=O)[C@H](C)[C@@H](O[C@@H]2O[C@H](C)C[C@H](N(C)C)[C@H]2O)[C@](C)(OC)C[C@@H](C)C(=O)[C@H](C)[C@H]2N(CCCCn3cnc(-c4cccnc4)c3)C(=O)O[C@]12C [TELITHROMYCIN]
226.8 Å² | CC(C)(C)c1ccc(C(O)CCCN2CCC(C(O)(c3ccccc3)c3ccccc3)CC2)cc1 (stereo unspecified) [TERFENADINE]
245.3 Å² | COc1ccc2cc1Oc1ccc(cc1)C[C@H]1c3cc(c(OC)cc3CCN1C)Oc1c(OC)c(OC)cc3c1[C@H](C2)N(C)CC3 [TETRANDRINE]
245.7 Å² | O=C(O[C@@H]1Cc2c(O)cc(O)cc2O[C@@H]1c1cc(=O)c(O)c2c(O)c(O)cc([C@H]3Oc4cc(O)cc(O)c4C[C@H]3O)c2c1)c1cc(O)c(O)c(O)c1 [THEAFLAVIN MONOGALLATES]
219.8 Å² | O=c1cc([C@H]2Oc3cc(O)cc(O)c3C[C@H]2O)cc2c([C@H]3Oc4cc(O)cc(O)c4C[C@H]3O)cc(O)c(O)c2c1O [THEAFLAVIN]
209.5 Å² | CC(=O)OCC(=O)[C@@]1(O)[C@H](OC(C)=O)C[C@H]2[C@@H]3CCC4=CC(=O)C=C[C@]4(C)[C@@]3(F)[C@@H](O)C[C@@]21C [TRIAMCINOLONE DIACETATE]
147.4 Å² | Cc1cc2cc3c(C)cc(=O)oc3c(C)c2o1 [TRIOXSALEN]

Same assay, conditions: [M+Na]+; instrument: TW; calibrated with polyalanine and drug standards

collision cross section (N2) | Compound
205.7 Å² | CC(=O)OCC(OC(C)=O)C(OC(C)=O)C(OC(C)=O)C(OC(C)=O)C(COC(C)=O)OC(C)=O (stereo unspecified) [PERSEITOL HEPTAACETATE]
